# In PubChem BioAssay AID1404 (The Scripps Research Institute Molecular Screening Center, 2008):
# Calls of active or inactive are those of the source.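 Rule for the calls: active = EC50 for STAT3 reporter activation at or below 10 µM; inactive = the rest.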
# Tested on: U3A cells, IL-6 STAT3 luciferase reporter, luminescence
# Assay: STAT3 activators in IL-6-stimulated reporter cells, dose response, counter-screen for STAT1 activator project, U3A cells, STAT1-deficient, luminescence, IL-6 stimulus (AID 1404)
row,SMILES,EC50
1,Cc1nc(-c2ccc(NC(=O)c3ccccc3Br)cc2)cs1,> 55.7 µM (inactive)
2,O=C(O)c1ccccc1C(=O)Nc1ccc(-c2csc(-c3ccccc3)n2)cc1,> 55.7 µM (inactive)
3,COc1ccc(-c2cc(C)nc3c(-c4ccccc4)cnn23)cc1,> 55.7 µM (inactive)
4,COc1ccc(/C=C/C(=O)Nc2ccccc2)cc1OC,> 55.7 µM (inactive)
5,O=C(/C=C/c1ccc(F)cc1)Nc1nc2ccccc2[nH]1,> 55.7 µM (inactive)
6,Nc1ccccc1C(=O)OCC(=O)N1CCc2ccccc21,> 55.7 µM (inactive)
7,COc1ccc2nc(Nc3nc(C)c(C(C)=O)s3)sc2c1,> 55.7 µM (inactive)
8,C=CCNC(=S)NNC(=O)COc1ccc2cc(Br)ccc2c1,> 55.7 µM (inactive)
9,Nc1ncc(-c2cc3ccccc3oc2=O)s1,> 55.7 µM (inactive)
10,O=C(OCc1csc(-c2ccccc2)n1)c1cccs1,> 55.7 µM (inactive)
11,O=C(Nc1nccs1)c1ccc(-c2ccc([N+](=O)[O-])cc2)o1,> 55.7 µM (inactive)
12,Cc1ccc(C(=O)Nc2nc3c(s2)CCCC3)o1,> 55.7 µM (inactive)
13,C=CCn1c(C)cc(C(=O)CSc2nc3ccccc3o2)c1C,> 55.7 µM (inactive)
14,O=C(/C=C/Nc1ccccc1F)c1ccc(Br)cc1,> 55.7 µM (inactive)
15,C=CCNc1nc(-c2cc3ccccc3o2)cs1,> 55.7 µM (inactive)
16,Cc1ccc(-c2cc3nc(C)cc(NCc4ccco4)n3n2)cc1,> 55.7 µM (inactive)
17,COc1ccc2c(c1)oc(=O)c1cc(OC)ccc12,> 55.7 µM (inactive)
18,Cc1ncsc1C(=O)Nc1nc2c(s1)CCCC2,> 55.7 µM (inactive)
19,CCCCCNc1nc(-c2ccccc2)cs1,> 55.7 µM (inactive)
20,CC(=O)c1cccc(N/C=C\C(=O)c2ccc(C)cc2)c1,> 55.7 µM (inactive)
21,Cc1ccc(/C=C/C(=O)N2CCCC(C)C2)cc1 (stereo not drawn),> 55.7 µM (inactive)
22,CCCOC(=O)c1ccc(-c2ccc(C=O)o2)cc1,> 55.7 µM (inactive)
23,Cc1ccc(C(=O)N2CCc3ccccc32)o1,> 55.7 µM (inactive)
24,Cc1nc(-c2ccc(NC(=O)c3ccccc3C)cc2)cs1,> 55.7 µM (inactive)
25,Cc1cc(C(=O)NCCC2=CCCCC2)c(C)o1,> 55.7 µM (inactive)
26,Cc1ccc(NC(=O)Nc2ccc3oc(C)nc3c2)cc1,> 55.7 µM (inactive)
27,Cc1ccc(C(=O)Nc2nc3ccccc3s2)s1,> 55.7 µM (inactive)

row,SMILES,EC50
1,O=C(CCc1nnc(CCCc2ccccc2)o1)N1CCCCCC1,> 55.7 µM (inactive)
2,Nc1ccc2oc(-c3ccccc3Cl)nc2c1,> 55.7 µM (inactive)
3,O=C(Nc1ccc(-c2nc3cccnc3s2)cc1)c1ccco1,> 55.7 µM (inactive)
4,C=CCNC(=O)c1cc(-c2ccc(Br)cc2)on1,> 55.7 µM (inactive)
5,COc1ccc2[nH]c3c(c2c1)CCn1c-3nc2ccccc2c1=O,> 55.7 µM (inactive)
6,CC(=O)COc1ccc2c(C)c(-c3ccccc3)c(=O)oc2c1,> 55.7 µM (inactive)
7,CN1C(=O)/C(=C/C=C2\SCCN2C)SC1=S,> 55.7 µM (inactive)
8,N#C/C(=C\c1ccc(N2CCOCC2)o1)c1nc2ccccc2[nH]1,> 55.7 µM (inactive)
9,Cc1nc2ccc(-c3nc4ccccc4o3)cc2[nH]1,> 55.7 µM (inactive)
10,CCOCC(=O)Nc1nc2ccc(OCC)cc2s1,> 55.7 µM (inactive)
11,c1csc(C2=NNC(=NC3CCCCC3)SC2)c1,> 55.7 µM (inactive)
12,O=C(NC(=S)Nc1ccc(F)cc1)c1ccc2c(c1)OCCO2,> 55.7 µM (inactive)
13,Cc1ccc2nc(NC(=O)CCn3cccc3)sc2c1,> 55.7 µM (inactive)
14,O=C(c1ccccc1)c1ccc(N2CCCC2)cc1,> 55.7 µM (inactive)
15,O=C(Nc1ccc2c(c1)OCCO2)c1ccc(Br)s1,> 55.7 µM (inactive)
16,COc1ccc(-c2nc3ccc([N+](=O)[O-])cc3[nH]2)cc1,> 55.7 µM (inactive)
17,CCc1ccc(NC(=O)N2CCC(c3ccccc3)C2)cc1 (stereo not drawn),> 55.7 µM (inactive)
18,Cc1cccc(Nc2n[nH]c(C)c2[N+](=O)[O-])c1,> 55.7 µM (inactive)
19,CC(C)Oc1ccc2c(=O)c(-c3ccccc3)coc2c1,> 55.7 µM (inactive)
20,CC(C)(C)N=C1NN=C(c2cc3ccccc3o2)CS1,> 55.7 µM (inactive)
21,CN(C)c1nc(N)nc(CSc2nc3cc(Cl)ccc3o2)n1,> 55.7 µM (inactive)
22,Cc1ccc(C(=O)/C=C/Nc2cccc([N+](=O)[O-])c2)o1,> 55.7 µM (inactive)
23,COc1ccc2nc(Nc3ccc4c(c3)OCO4)sc2c1,> 55.7 µM (inactive)
24,CCOC(=O)c1sc(NC(=O)c2sccc2C)cc1C,> 55.7 µM (inactive)
25,CCN(CC)c1ccc2cc(C(=O)Nc3ccccn3)c(=O)oc2c1,> 55.7 µM (inactive)
26,COc1ccc(-c2cc3ncc(-c4ccccc4)c(N)n3n2)cc1,> 55.7 µM (inactive)
